Laboratory results from patent US10414775B2 (Merck Sharp & Dohme Corp., priority 2016, dated 2019).
Structures can show the parent of a compound that is named as a salt.

Molecular target: T1, Human CYP8B1 (Homo sapiens, UniProt Q9UNU6)
T1 construct: tissue Xenotech; host or cells: human liver microsomes
T1 sequence (Q9UNU6 1-501): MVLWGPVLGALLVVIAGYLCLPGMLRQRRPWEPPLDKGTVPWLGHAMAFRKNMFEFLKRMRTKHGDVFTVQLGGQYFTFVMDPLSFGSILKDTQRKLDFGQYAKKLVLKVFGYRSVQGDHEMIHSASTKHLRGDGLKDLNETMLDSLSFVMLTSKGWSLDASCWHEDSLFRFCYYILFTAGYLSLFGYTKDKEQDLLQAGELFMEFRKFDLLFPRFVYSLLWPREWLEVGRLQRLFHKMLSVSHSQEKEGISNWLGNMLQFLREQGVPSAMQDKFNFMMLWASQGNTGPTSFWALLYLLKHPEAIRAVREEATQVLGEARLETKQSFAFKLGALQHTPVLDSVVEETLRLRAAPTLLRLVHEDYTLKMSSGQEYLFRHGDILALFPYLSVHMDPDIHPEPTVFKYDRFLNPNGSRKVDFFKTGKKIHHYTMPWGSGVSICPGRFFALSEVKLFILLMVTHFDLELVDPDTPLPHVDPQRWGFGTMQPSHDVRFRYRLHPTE
Assay: Human Cyp8B1 Liver Microsome Assay
Format: biochemical
Details: human liver microsomes; substrate 7α-hydroxy-4-cholesten-3-one, NADPH; 30 min pre-incubation, 45 min reaction; RapidFire MS readout
Description: Human Cyp8B1 Liver Microsome Assay To a 384 well polypropylene plate (Corning 3656), 250 nl of inhibitor in 100% DMSO (1.25% final DMSO concentration) was pre-plated using an Echo liquid handler (Labcyte Inc.). Human liver microsomes (Xenotech) were diluted in of 0.1 M phosphate buffer, pH 7.4, at a concentration of 65 μg/ml and 15 μL was added to the 384 well plate. The plates were incubated at ambient room temperature for 30 minutes. After pre-incubation with inhibitor, the reaction was initiated by adding 5 μl of substrate solution (4.0 μM 7α-hydroxy-4-cholesten-3-one(Toronto Research Chemicals), 2 mM of NADPH (Sigma), 0.1 M phosphate buffer (pH 7.4). The reaction was carried out for 45 minutes at ambient room temperature and was quenched by the addition of 50 μl of acetonitrile+0.1% vol/vol formic acid (FA)+300 nM 7α-hydroxy-4-cholesten-3-one-d7 (Toronto Research Chemicals). The plates were sealed and centrifuged at 3000 rpm for 5 minutes. Plates were loaded onto the Agilent RapidFire RF300 HTMS system, wherein samples were sipped for 600 ms, and the sip sensor detection signals the diversion of sample from the loop onto a C4 solid phase extraction (SPE) cartridge, where salts are washed off for 2500 ms with a mobile phase of water with 0.1% vol/vol FA at a flow rate of 1.5 ml/min. The column path is switched, and the sample is eluted off the cartridge and flowed into the mass spectrometer for 3000 ms with a mobile phase of acetonitrile and 0.1% vol/vol FA at a flow rate of 1.25 ml/min. The aspirator tip was washed separately with water and acetonitrile between sample aspirations (each for 600 ms) to minimize carryover contamination. Mass spectrometry was carried out using a Sciex API4000 triple quadrupole mass spectrometer (Applied Biosystems, Concord, ON, Canada) equipped with electrospray ionization (ESI) operated in the positive-ion mode. The product 7α, 12α-dihydroxy-4-cholesten-3-one and internal standard 7α-hydroxy-4-cholsten-3-one-d7 were detected using multiple reaction monitoring (MRM) with Q1/Q3 transitions at m/z 417.3 to 381.3 and m/z 408.3 to 390.3, respectively, with a dwell time of 100 ms and a collision energy of 24 V for each transition. The mass spectrometer used an ESI voltage of 5000 V and a source temperature of 650° C. Extracted ion chromatograms for each transition were integrated and processed using the RapidFire Integrator software. The data for each well were normalized by monitoring product conversion with the ratio of AUCproduct/(AUCinternal standard). The data was then fitted to a four parameter logistic fit using ActivityBase Software to calculate an IC50 of the inhibitor.

IC50 [nM] | SMILES
0.8 | C[C@@H]1CN(c2c(Cl)c[n+]([O-])c3cc(C(F)(F)F)ccc23)CC[C@@H]1C(=O)N1CCn2c(nnc2C(F)(F)F)C1 [Example 40, {(3S,4S)-1-[3-chloro-1-oxido-7-(trifluoromethyl)quinolin-4-yl]-3-methylpiperidin-4-yl}[3-(trifluoromethyl)-5,6-dihydro[1,2,4]triazolo[4,3-a]pyrazin-7(8H)-yl]methanone]
3.91 | C[C@@H]1CN(c2ccnc3cc(OCc4ccccc4)ccc23)CC[C@@H]1C(=O)N1CCn2c(nnc2C(F)(F)F)C1 [Example 30]
0.17 | Cc1cnc2cc(C(F)(F)F)ccc2c1N1CC[C@H](C(=O)N2CCn3c(nnc3C(F)(F)F)C2)[C@H](C)C1 [Example 35, {(3S,4S)-3-methyl-1-[3-methyl-7-(trifluoromethyl)quinolin-4-yl]piperidin-4-yl}[3-(trifluoromethyl)-5,6-dihydro[1,2,4]triazolo[4,3-a]pyrazin-7(8H)-yl]methanone]
6.3 | C[C@@H]1CN(c2ccnc3cc(Cl)ccc23)CC[C@@H]1C(=O)N1CCn2c(nnc2C(F)(F)F)C1 [Example 21, [(3S,4S)-1-(7-chloroquinolin-4-yl)-3-methylpiperidin-4-yl][3-(trifluoromethyl)-5,6-dihydro[1,2,4]tria-zolo[4,3-a]pyrazin-7(8H)-yl]methanone]
8.2 | C[C@@H]1CN(c2ccnc3c2CCN(C(=O)OC(C)(C)C)C3)CC[C@@H]1C(=O)N1CCn2c(nnc2C(F)(F)F)C1 [Example 59, tert-butyl 4-((3S,4S)-3-methyl-4-(3-(trifluoromethyl)-5,6,7,8-tetrahydro-[1,2,4]triazolo[4,3-a]pyrazine-7-carbonyl)piperidin-1-yl)-5,6-dihydro-1,7-naphthyridine-7(8H)-carboxylate]
4.5 | CC(C)NC(=O)c1ccc2c(N3CC[C@H](C(=O)N4CCn5c(nnc5C(F)(F)F)C4)[C@H](C)C3)ccnc2c1 [Example 66, N-isopropyl-4-((3 S,4S)-3-methyl-4-(3-(trifluoromethyl)-5,6,7,8-tetrahydro-[1,2,4]triazolo[4,3-a]pyrazine-7-carbonyl)piperidin-1-yl)quinoline-7-carboxamide]
1.1 | C[C@@H]1CN(c2ccnc3cc(C(C)(F)F)ccc23)CC[C@@H]1C(=O)N1CCn2c(nnc2C(F)(F)F)C1 [Example 46, {(3S,4S)-1-[7-(1,1-difluoroethyl)quinolin-4-yl]-3-methylpiperidin-4-yl}[3-(trifluoromethyl)-5,6-dihydro[1,2,4]triazolo[4,3-a]pyrazin-7(8H)-yl]methanone]
6700 | Cc1ccc2c(N3CC[C@H](C(=O)N4CCn5c(nnc5C(F)(F)F)C4)[C@H](C)C3)ccnc2n1 [Example 27, [(3S,4S)-3-methyl-1-(7-methyl-1,8-naphthyridin-4-yl)piperidin-4-yl][3-(trifluoromethyl)-5,6-dihydro[1,2,4]tria-zolo[4,3-a]pyrazin-7(8H)-yl]methanone]
0.5 | C[C@@H]1CN(c2c(Cl)cnc3cc(-c4ncco4)ccc23)CC[C@@H]1C(=O)N1CCn2c(nnc2C2CC2)C1 [Example 78, ((3S,4S)-1-(3-chloro-7-(oxazol-2-yl)quinolin-4-yl)-3-methylpiperidin-4-yl) (3-cyclopropyl-5,6-dihydro-[1,2,4]triazolo[4,3-a]pyrazin-7(8H)-yl)methanone]
2890 | C[C@@H]1CN(c2ccnc3cc(O)ccc23)CC[C@@H]1C(=O)N1CCn2c(nnc2C(F)(F)F)C1 [Example 38, [(3S,4S)-1-(7-hydroxyquinolin-4-yl)-3-methylpiperidin-4-yl][3-(trifluoromethyl)-5,6-dihydro[1,2,4]triazolo[4,3-a]pyrazin-7(8H)-yl]methanone]
0.46 | C[C@@H]1CN(c2c(Cl)cnc3cc(C(C)(F)F)ccc23)CC[C@@H]1C(=O)N1CCn2c(nnc2C(F)(F)F)C1 [Example 49, {(3S,4S)-1-[3-chloro-7-(1,1-difluoroethyl)quinolin-4-yl]-3-methylpiperidin-4-yl}[3-(trifluoromethyl)-5,6-dihydro[1,2,4]triazolo[4,3-a]pyrazin-7(8H)-yl]methanone]
1 | C[C@@H]1CN(c2c(Cl)cnc3c2CCN(CC2CC2)C3)CC[C@@H]1C(=O)N1CCn2c(nnc2C(F)(F)F)C1 [Example 61, ((3S,4S)-1-(3-chloro-7-(cyclopropylmethyl)-5,6,7,8-tetrahydro-1,7-naphthyridin-4-yl)-3-methylpiperidin-4-yl)(3-(trifluoromethyl)-5,6-dihydro-[1,2,4]triazolo[4,3-a]pyrazin-7(8H)-yl)methanone]
21.1 | C[C@@H]1CN(c2ccnc3cc(C(=O)NC45CC(C4)C5)ccc23)CC[C@@H]1C(=O)N1CCn2c(nnc2C(F)(F)F)C1 [Example 68, N-(bicyclo[1.1.1]pentan-1-yl)-4-((3S,4S)-3-methyl-4-(3-(trifluoromethyl)-5,6,7,8-tetrahydro-[1,2,4]triazolo [4,3-a]pyrazine-7-carbonyl)piperidin-1-yl) quinoline-7-carboxamide]
19 | C[C@@H]1CN(c2ccnc3cc(F)ccc23)CC[C@@H]1C(=O)N1CCn2c(nnc2C(F)(F)F)C1 [Example 22, [(3S,4S)-1-(7-fluoroquinolin-4-yl)-3-methylpiperidin-4-yl][3-(trifluoromethyl)-5,6-dihydro[1,2,4]tria-zolo[4,3-a]pyrazin-7(8H)-yl]methanone]
0.8 | C[C@@H]1CN(c2c(Cl)cnc3c2CCN(CC(F)(F)F)C3)CC[C@@H]1C(=O)N1CCn2c(nnc2C(F)(F)F)C1 [Example 60, ((3S,4S)-1-(3-chloro-7-(2,2,2-trifluoroethyl)-5,6,7,8-tetrahydro-1,7-naphthyridin-4-yl)-3-methylpiperidin-4-yl)(3-(trifluoromethyl)-5,6-dihydro-[1,2,4]triazolo[4,3-a]pyrazin-7(8H)-yl)methanone]
1 | C[C@@H]1CN(c2c(C(F)(F)F)cnc3ccccc23)CC[C@@H]1C(=O)N1CCn2c(nnc2C(F)(F)F)C1 [Example 5, ((3S,4S)-3-methyl-1-(3-(trifluoromethyl)quinolin-4-yl)piperidin-4-yl)(3-(trifluoromethyl)-5,6-dihydro-[1,2,4]triazolo[4,3-a]pyrazin-7(8H)-yl)methanone]
0.28 | CC(=O)c1ccc2c(N3CC[C@H](C(=O)N4CCn5c(nnc5C(F)(F)F)C4)[C@H](C)C3)c(Cl)cnc2c1 [Example 43, 1-{3-chloro-4-[(3S,4S)-3-methyl-4-{[3-(trifluoromethyl)-5,6-dihydro[1,2,4]triazolo[4,3-a]pyrazin-7(8H)-yl]carbonyl}piperidin-1-yl]quinolin-7-yl}ethanone]
5.2 | C[C@@H]1CN(c2ccnc3cc(C(F)(F)F)ccc23)CC[C@@H]1C(=O)N1CCn2c(nnc2C(F)(F)F)C1 [Example 12, {(3S,4S)-3-methyl-1-[7-(trifluoromethyl)quinolin-4-yl]piperidin-4-yl}[3-(trifluoromethyl)-5,6-dihydro[1,2,4]triazolo[4,3-a]pyrazin-7(8H)-yl]methanone]
14 | C[C@@H]1CN(c2ccnc3c(F)c(Cl)ccc23)CC[C@@H]1C(=O)N1CCn2c(nnc2C(F)(F)F)C1 [Example 20, 7-chloro-8-fluoro-4-[(3S,4S)-3-methyl-4-{[3-(trifluoromethyl)-5,6-dihydro[1,2,4]tria-zolo[4,3-a]pyrazin-7(8H)-yl]carbonyl}piper-idin-1-yl]quinolinium trifluoroacetate]
1.2 | COc1cnc2c(N3CC[C@H](C(=O)N4CCn5c(nnc5C(F)(F)F)C4)[C@H](C)C3)c(Cl)cnc2c1 [Example 8, ((3S,4S)-1-(3-chloro-7-methoxy-1,5-naphthyridin-4-yl)-3-methylpiperidin-4-yl)(3-(trifluoromethyl)-5,6-dihydro-[1,2,4]triazolo[4,3-a]pyrazin-7(8H)-yl)methanone]
